In article PMC9666555, “Genuine selective caspase-2 inhibition with new irreversible small peptidomimetics” (Cell Death & Disease, 2022):
Non-standard residues stand in square brackets, D forms with d. Residues, ends and D or L forms follow the SMILES beside them. ξ: configuration not given here. *: point of attachment. ξTHIQ1CO(6-Me) = Cc1ccc2c(c1)CCNC2C(=O)O; X1 = O=C(O)CC(N*)C(=O)COc1c(F)cccc1F; Quinaldoyl = O=C(c1ccc2ccccc2n1)*

Legend:
[1] = molecular target: T1, human active recombinant Caspase-3 (Homo sapiens, UniProt P42574); test: In vitro caspase activity and inhibition assay (IC50), Caspase-3; type: biochemical; conditions: 30 min preincubation; 0.1 nM Caspase-3, 10 µM Ac-DEVD-AMC; read-out: Enzyme assays Casp3 IC50 (converted)
T1 sequence (P42574 29-175 limits assumed): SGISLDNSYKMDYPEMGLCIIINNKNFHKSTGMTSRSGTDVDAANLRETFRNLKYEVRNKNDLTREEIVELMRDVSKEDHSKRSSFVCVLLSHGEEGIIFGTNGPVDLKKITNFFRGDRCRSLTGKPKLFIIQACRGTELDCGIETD
T1 sequence (P42574 176-277 limits assumed): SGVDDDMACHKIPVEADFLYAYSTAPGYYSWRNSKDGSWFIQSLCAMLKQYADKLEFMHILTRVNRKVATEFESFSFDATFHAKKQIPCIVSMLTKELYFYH
Procedure: The human active recombinant Caspase-3 (#707-C3) was purchased from R&D Systems (Minneapolis, USA). […] Stock solutions were stored at −80 °C. […] Caspase inhibitors were solubilized in DMSO at 10 mM and stored at −80 °C.
Initial velocity (V0) was determined from the linear portion of the progress curve. The composition of the activity buffer was: 20 mM HEPES, pH 7.4; 0.1% CHAPS, 5 mM DTT, 2 mM EDTA; 800 mM sodium succinate for Caspase-2 (0.2 nM) with 25 µM of Ac-VDVAD-7-amino-3-methylcoumarin (AMC) and 20 mM HEPES, pH 7.4; 0.1% CHAPS, 5 mM DTT, 2 mM EDTA; supplemented with 1 mg/mL of stabilizing agent bovine serum albumin (BSA) for Caspase-3 (0.1 nM) with 10 μM of Ac-DEVD-AMC. Compounds (0.001–100 µM) were tested in duplicate for each inhibitor concentration to detect their inhibitory potential. Enzymes and compounds were incubated for 30 min before initiating enzymatic reaction by adding substrate. Initial rates determined in control experiments (V0) were considered as 100% of the caspase activity; initial rates that were below 100% in the presence of tested compound (Vi) were considered as inhibition. The inhibitory activity of compounds was expressed as IC50 (Inhibitor concentration giving 50% inhibition). The values of IC50 were calculated by fitting the experimental data using Mars data Analysis 2.0 and KaleidaGraph software.1 %Inhibition=1001−Vi/V0=100I0/IC50+I0

HeLa cells = test: Vincristine-induced HeLa cell death (propidium iodide, flow cytometry); type: cell-based, human; conditions: indicated doses, 1 h pretreatment, 20 nM vincristine 44 h
Procedure: HeLa cells (obtained from ATCC) were cultured in Dulbecco’s Modified Eagle Medium (DMEM, High Glucose, GlutaMAX™, Pyruvate) supplemented with antibiotics and 10% fetal calf serum (FCS) (Gibco, Life Technologies) and maintained in T75 Flasks at 1 × 10^6 cells per flask. Twenty-four hours before treatments, HeLa cells were transferred to 6-well plates (8 × 10^4 cells/well). The lymphoblastoid cell line Molt4cl8 was a gift from Dr. Bernard Krust (Inserm, University Paris 5) and was cultured in RPMI 1640 Glutamax medium supplemented with Hepes, antibiotics, and 10% FCS. HEK293 cells were obtained from ATCC (CRL-1573) and cultured in DMEM with Glutamax and 25 mM glucose (Life Technologies) supplemented with 10% FCS and antibiotics. For cell death induction, the following agents were added to cell cultures: Vincristine (Sigma) and Panobistat (LBH589; Selleck). Cell death was analyzed using fluorescence microscopy (Axio-observer Z1, Zeiss; equipped with CCD camera CoolsnapHQ2, Ropert Scientific) and cytofluorometry (MACSQuant® VYB; Miltenyi Biotec, Bergisch Gladbach, Germany) after labeling with propidium iodide (1 µg/mL; 10 min; 37 °C; Life Technologies) and Hoechst 33342 (1 µg/mL; 5 min; RT; Sigma).
Fig. 2 q33 and h33 are protective against the cytocidal effect of Vincristine. a Vincristine induces HeLa cell death. Cells were incubated for 44 h at 37 °C with 20 nM Vincristine (VCR), then incubated with propidium iodide at 2 μg/mL for 10 min and analyzed by flow cytometry to quantify plasma membrane permeabilization. Histograms show fluorescence intensity detected by flow cytometry (one representative experiment) in the presence (VCR) or Absence (Co.) of Vincristine. % of propidium iodide-positive cells are indicated for both conditions. b Dose–response of Vincristine-induced cell death. HeLa cells were incubated and treated as in (a) with the indicated doses of Vincristine (VCR) and analyzed by flow cytometry. […] Representative fluorescence microscopy micrographs of cells treated for 44 h with 20 nM vincristine (VCR) or not (Co.) and stained with Hoechst 33342. Vincristine induces progressive nuclear changes with first condensed nuclei (arrows) and then apoptotic bodies (dashed arrow). d Broad-spectrum irreversible caspase inhibitors prevent vincristine-induced cell death. HeLa cells were pretreated for 1 hr with the indicated broad-spectrum irreversible caspases inhibitors (z-VAD(OMe)-fmk at 30 μM, Q-VD-OPh 30 μM, Emricasan 10 μM, or the negative control Q-VE-OPh 30 μM), then treated with vincristine as in panel (a), and analyzed by flow cytometry. Histograms show the mean ± SD of 3 independent experiments (***p value < 0.001). e Effect of the reversible Caspase-2 inhibitors q33 and h33 against vincristine-induced cell death. HeLa cells were pretreated for 1 h with the indicated doses of q33 or h33, then treated with vincristine as in panel a, and analyzed by flow cytometry. Histograms show the mean ± SD of three independent experiments (*p value < 0.1). TEXT PRINTED IN THE PICTURE: (a) VCR: 39,5 % DOUBTS OF THE COPYIST ABOUT THIS PICTURE: Panel a: the picture prints no measure beside "39,5 %" and "4.1%". I assigned 39,5 % to VCR only because it stands by the grey VCR peak. / Panel a: "4.1%" seems to belong to the untreated control (Co.). That is not a substance, so it is left out.
Fig. 5 LJ2 inhibits cell death induced by microtubule destabilization and hydroxamic acid-based deacetylase (HDAC) inhibition. a Effect of the irreversible Caspase-2 inhibitors LJ2 against vincristine-induced cell death. HeLa cells were pretreated for 1 h with the indicated doses of LJ2, Q-VD-OPh, or Q-LETD-OPh, then treated with vincristine (VCR) as in Fig. 2, then incubated with propidium iodide at 2 μg/mL for 10 min and analyzed by flow cytometry. Histogram data are mean ± SD (n = 3, *p value < 0.01). b Effect of Caspases-inhibitors against Panobistat (LBH589)-induced cell death. […]

[2] = test system: cell lines or primary neurons in culture; test: Toxicity of inhibitor added to cultured cells; type: cell-based; conditions: at least up to 100 µM; not shown
Thrombin = molecular target: T2, Thrombin (Homo sapiens, UniProt P00734); test: Non-caspase enzyme assay, Thrombin; type: biochemical; conditions: concentrations up to 10 µM
T2 construct: The human active Plasmin, Thrombin, and Trypsin; purchased Sigma-Aldrich
Procedure: Stock solutions were stored at −80 °C. […]
Non-caspase enzyme assays
The human pro- kallikrein-1 (pro-hK1) was activated in a buffer containing: Tris-HCl 50 mM, CaCl2 10 mM, NaCl 150 mM, Brij-35 0,05% pH 7,5. Human pro-kallikrein-6 and -8 (pro-hK6 and 8 were activated using Lysyl-endopeptidase (Wako- BioProducts®) at a 1/500 weight ratio, in a buffer containing 50 mM Tris and 0,05% Brij-35 (pH 8). Kinetics using non-caspase enzymes for selectivity studies were done according to the following conditions.
Enzymes Substrates Buffers
Cathepsine B (0.2 nM) z-RR-AMC 20 µM Acétate de sodium 0,1 M; EDTA 1mM ; […]
Cathepsine L (1.2 nM) RLR-AMC 25 µM Acétate de sodium 0,1 M; EDTA 1mM ; […]
Cathepsine D (0.1 nM) Mca-Gly-Ly s-Pro-Ile-Leu-Phe-Phe- Citrate de Sodium 0,1 M; EDTA 2 mM ; Arg-Leu-Lys(Dnp)-D-Arg-NH2 10 µM Brij-35 0,01%; pH 4 hK1 (4 nM) Boc-VPR-AMC 100µM Tris 50mM; Citrate 1M; Brij-35 0.05%; pH7 hK6 (2 nM ) Boc-QAR -AMC 100 µM Tris 50mM; Citrate 1M; Brij-35 0.05%; pH7 hK8 (1 nM) Boc-VPR-AMC 100µM Tris 50mM; Citrate 1M; Brij-35 0.05%; pH7
Thrombine (10 mU/mL) Boc-VPR-AMC 100µM Tris 50mM; Citrate 1M; Brij-35 0.05%; pH7 Plasmine (4 nM ) Boc-QAR -AMC 100µM Tris 50mM; Citrate 1M; Brij-35 0.05%; pH7 Trypsine (0.1 nM) Boc-QAR -AMC 100µM Tris 50mM; Citrate 1M; Brij-35 0.05%; pH7

| SMILES | IC50 [1] | effect against vincristine-induced cell death (HeLa cells) | toxicity [2] | effect on Thrombin (Thrombin) |
| --- | --- | --- | --- | --- |
| Cc1ccc2c(c1)CCN(C(=O)[C@@H](NC(=O)[C@H](CC(=O)O)NC(=O)[C@@H](NC(=O)c1ccc3ccccc3n1)C(C)C)C(C)C)C2C(=O)NC(CC(=O)O)C(=O)COc1c(F)cccc1F (stereo partly drawn) [LJ2, Quinolin-2-carbonyl-VDV-(methyl-isoquinolyl)-D-CH2-O(2,6F2)Ph] (Quinaldoyl-VDV[ξTHIQ1CO(6-Me)]-X1) | 140 ± 5 nM | significantly prevented Vincristin-induced cell death in a dose-dependent manner | devoid of any toxicity | – |
| CC(C)[C@H](NC(=O)c1ccc2ccccc2n1)C(=O)N[C@@H](CC(=O)O)C(=O)N[C@H](C(=O)N1CC[C@H](CC(C)(C)C)[C@@H]1C(=O)NC(CC(=O)O)C(=O)COc1c(F)cccc1F)C(C)C (stereo partly shown) [LJ3a] | – | – | – | very limited or no effect |
